# Laboratory results from ChEMBL document CHEMBL1201861, “Genomics of Drug Sensitity in Cancer screening data, Wellcome Trust Sanger Institute”.
# Tests used:
# Test in all cases: cells
# PSN1 = assay type: functional, cell-based, Homo sapiens; details: Homo sapiens, PSN1;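 note: suppression of growth of human PSN1 cells, read out by a cell viability assay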
# Description: SANGER: Inhibition of human PSN1 cell growth in a cell viability assay.
# SK-MEL-2 = assay type: functional, cell-based, Homo sapiens; details: Homo sapiens, SK-MEL-2;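 note: growth inhibition of human SK-MEL-2 cells measured with a cell viability assay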
# Description: SANGER: Inhibition of human SK-MEL-2 cell growth in a cell viability assay.
# KP-N-YS = assay type: functional, cell-based, Homo sapiens; details: Homo sapiens, KP-N-YS;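 note: cell viability assay measuring inhibition of cell line growth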
# Description: SANGER: Inhibition of human KP-N-YS cell growth in a cell viability assay.
# OMC-1 = assay type: functional, cell-based, Homo sapiens; details: Homo sapiens, OMC-1;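 note: growth inhibition of the OMC-1 cell line, measured by a cell viability assay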
# Description: SANGER: Inhibition of human OMC-1 cell growth in a cell viability assay.
# SW 962 = assay type: functional, cell-based, Homo sapiens; details: Homo sapiens, SW 962;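 note: growth inhibition of human SW962 cells, read out by a cell viability assay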
# Description: SANGER: Inhibition of human SW962 cell growth in a cell viability assay.
# COLO-824 = assay type: functional, cell-based, Homo sapiens; details: Homo sapiens, COLO-824
# Description: SANGER: Inhibition of human COLO-824 cell growth in a cell viability assay.
# ES1 = assay type: functional, cell-based, Homo sapiens; details: Homo sapiens, ES1;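 note: growth inhibition of ES1 cells, read out with a cell viability assay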
# Description: SANGER: Inhibition of human ES1 cell growth in a cell viability assay.
# KNS-81-FD = assay type: functional, cell-based, Homo sapiens; details: Homo sapiens, KNS-81-FD;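 note: growth inhibition of KNS-81-FD cells, read out with a cell viability assay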
# Description: SANGER: Inhibition of human KNS-81-FD cell growth in a cell viability assay.
# TE-5 = assay type: functional, cell-based, Homo sapiens; details: Homo sapiens, TE-5;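 note: inhibition of cell growth, read out by a cell viability assay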
# Description: SANGER: Inhibition of human TE-5 cell growth in a cell viability assay.
# KM12 = assay type: functional, cell-based, Homo sapiens; details: Homo sapiens, KM12;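 note: KM12 cell growth inhibition, read out with a cell viability assay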
# Description: SANGER: Inhibition of human KM12 cell growth in a cell viability assay.
# KY821 = assay type: functional, cell-based, Homo sapiens; details: Homo sapiens, KY821;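 note: growth inhibition of human KY821 cells, read out by a cell viability assay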
# Description: SANGER: Inhibition of human KY821 cell growth in a cell viability assay.
# JVM-3 = assay type: functional, cell-based, Homo sapiens; details: Homo sapiens, JVM-3;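 note: growth inhibition of human JVM-3 cells, read out with a cell viability assay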
# Description: SANGER: Inhibition of human JVM-3 cell growth in a cell viability assay.
# MN-60 = assay type: functional, cell-based, Homo sapiens; details: Homo sapiens, MN-60;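 note: growth inhibition of the MN-60 cell line, determined with a cell viability assay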
# Description: SANGER: Inhibition of human MN-60 cell growth in a cell viability assay.
# HCE-4 = assay type: functional, cell-based; details: Homo sapiens;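 note: cell viability assay measuring inhibition of growth in the human HCE-4 cell line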
# Description: SANGER: Inhibition of human HCE-4 cell growth in a cell viability assay.
# KG-1 = assay type: functional, cell-based, Homo sapiens; details: Homo sapiens, KG-1;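 note: growth inhibition of KG-1 cells, read out by a cell viability assay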
# Description: SANGER: Inhibition of human KG-1 cell growth in a cell viability assay.
# A253 cell line = assay type: functional, cell-based, Homo sapiens; details: Homo sapiens, A253;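 note: growth inhibition of A253 cells, read out with a cell viability assay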
# Description: SANGER: Inhibition of human A253 cell growth in a cell viability assay.
# EW-3 = assay type: functional, cell-based, Homo sapiens; details: Homo sapiens, EW-3;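 note: cell viability assay read-out, IC50 reflects inhibition of growth of the EW-3 cells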
# Description: SANGER: Inhibition of human EW-3 cell growth in a cell viability assay.
# KU812 cell line = assay type: functional, cell-based, Homo sapiens; details: Homo sapiens, KU812;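 note: growth inhibition of KU812 cells, read out with a cell viability assay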
# Description: SANGER: Inhibition of human KU812 cell growth in a cell viability assay.
# NOS-1 = assay type: functional, cell-based, Homo sapiens; details: Homo sapiens, NOS-1;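 note: growth inhibition of the human NOS-1 cell line, read out with a cell viability assay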
# Description: SANGER: Inhibition of human NOS-1 cell growth in a cell viability assay.
# NCI-H526 = assay type: functional, cell-based, Homo sapiens; details: Homo sapiens, NCI-H526;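 note: growth inhibition of the human NCI-H526 cell line, measured by a cell viability assay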
# Description: SANGER: Inhibition of human NCI-H526 cell growth in a cell viability assay.
# MZ1-PC = assay type: functional, cell-based, Homo sapiens; details: Homo sapiens, MZ1-PC;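 note: cell viability assay measuring growth inhibition of human MZ1-PC cells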
# Description: SANGER: Inhibition of human MZ1-PC cell growth in a cell viability assay.
# KARPAS-299 = assay type: functional, cell-based, Homo sapiens; details: Homo sapiens, KARPAS-299
# Description: SANGER: Inhibition of human KARPAS-299 cell growth in a cell viability assay.
# NCI-H1770 = assay type: functional, cell-based, Homo sapiens; details: Homo sapiens, NCI-H1770;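 note: growth inhibition of NCI-H1770 cells determined with a viability readout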
# Description: SANGER: Inhibition of human NCI-H1770 cell growth in a cell viability assay.
# NCI-H446 = assay type: functional, cell-based, Homo sapiens; details: Homo sapiens, NCI-H446;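 note: growth inhibition of NCI-H446 cells determined by a cell viability assay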
# Description: SANGER: Inhibition of human NCI-H446 cell growth in a cell viability assay.
# HT = assay type: functional, cell-based, Homo sapiens; details: Homo sapiens, HT
# Description: SANGER: Inhibition of human HT cell growth in a cell viability assay.
# BB65-RCC = assay type: functional, cell-based, Homo sapiens; details: Homo sapiens, BB65-RCC;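 note: growth inhibition of the cell line, measured with a cell viability assay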
# Description: SANGER: Inhibition of human BB65-RCC cell growth in a cell viability assay.
# LU-134-A = assay type: functional, cell-based, Homo sapiens; details: Homo sapiens, LU-134-A
# Description: SANGER: Inhibition of human LU-134-A cell growth in a cell viability assay.
# TE-11 = assay type: functional, cell-based; details: Homo sapiens;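 note: growth inhibition of human TE-11 cells, read out by a cell viability assay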
# Description: SANGER: Inhibition of human TE-11 cell growth in a cell viability assay.
# NCI-H1581 = assay type: functional, cell-based, Homo sapiens; details: Homo sapiens, NCI-H1581;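 note: cell growth inhibition read out by a viability assay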
# Description: SANGER: Inhibition of human NCI-H1581 cell growth in a cell viability assay.
# BT-474 = assay type: functional, cell-based, Homo sapiens; details: Homo sapiens, BT-474
# Description: SANGER: Inhibition of human BT-474 cell growth in a cell viability assay.
# UACC-257 = assay type: functional, cell-based, Homo sapiens; details: Homo sapiens, UACC-257
# Description: SANGER: Inhibition of human UACC-257 cell growth in a cell viability assay.
# LS-411N = assay type: functional, cell-based, Homo sapiens; details: Homo sapiens, LS-411N
# CGTH-W-1 = assay type: functional, cell-based, Homo sapiens; details: Homo sapiens, CGTH-W-1;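 note: growth inhibition of human CGTH-W-1 cells measured by cell viability assay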
# Description: SANGER: Inhibition of human CGTH-W-1 cell growth in a cell viability assay.
# D-247MG = assay type: functional, cell-based; details: Homo sapiens
# Description: SANGER: Inhibition of human D-247MG cell growth in a cell viability assay.
# MLMA = assay type: functional, cell-based, Homo sapiens; details: Homo sapiens, MLMA;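 note: growth inhibition of MLMA cells (human), determined through a cell viability readout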
# Description: SANGER: Inhibition of human MLMA cell growth in a cell viability assay.
# EW-1 = assay type: functional, cell-based, Homo sapiens; details: Homo sapiens, EW-1;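 note: growth inhibition of the human EW-1 cell line, read out by a cell viability assay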
# Description: SANGER: Inhibition of human EW-1 cell growth in a cell viability assay.
# RS4-11 = assay type: functional, cell-based, Homo sapiens; details: Homo sapiens, RS4-11;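 note: growth inhibition of RS4-11 cells, read out by a cell viability assay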
# Description: SANGER: Inhibition of human RS4-11 cell growth in a cell viability assay.
# LC-2-ad = assay type: functional, cell-based, Homo sapiens; details: Homo sapiens, LC-2-ad;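 note: growth inhibition of human LC-2-ad cells, read out with a cell viability assay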
# Description: SANGER: Inhibition of human LC-2-ad cell growth in a cell viability assay.
# ES3 = assay type: functional, cell-based, Homo sapiens; details: Homo sapiens, ES3;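 note: growth inhibition of ES3 cells, read out with a cell viability assay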
# Description: SANGER: Inhibition of human ES3 cell growth in a cell viability assay.
# J-RT3-T3-5 = assay type: functional, cell-based, Homo sapiens; details: Homo sapiens, J-RT3-T3-5;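 note: cell viability assay measuring growth inhibition of human J-RT3-T3-5 cells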
# Description: SANGER: Inhibition of human J-RT3-T3-5 cell growth in a cell viability assay.
# DSH1 = assay type: functional, cell-based; details: Homo sapiens;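 note: growth inhibition of human DSH1 cells, measured with a cell viability readout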
# Description: SANGER: Inhibition of human DSH1 cell growth in a cell viability assay.
# NCI-H1092 = assay type: functional, cell-based, Homo sapiens; details: Homo sapiens, NCI-H1092;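 note: cell growth inhibition measured with a cell viability assay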
# Description: SANGER: Inhibition of human NCI-H1092 cell growth in a cell viability assay.
# SNU1 = assay type: functional, cell-based, Homo sapiens; details: Homo sapiens, SNU1;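 note: growth inhibition of human NCI-SNU-1 cells, measured with a cell viability assay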
# Description: SANGER: Inhibition of human NCI-SNU-1 cell growth in a cell viability assay.
# OCI-AML2 = assay type: functional, cell-based, Homo sapiens; details: Homo sapiens, OCI-AML2;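 note: growth inhibition of OCI-AML2 cells, read out with a cell viability assay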
# Description: SANGER: Inhibition of human OCI-AML2 cell growth in a cell viability assay.
# RKO = assay type: functional, cell-based, Homo sapiens; details: Homo sapiens, RKO;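 note: growth inhibition of human RKO cells, read out with a cell viability assay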
# Description: SANGER: Inhibition of human RKO cell growth in a cell viability assay.
# TGBC1TKB = assay type: functional, cell-based, Homo sapiens; details: Homo sapiens, TGBC1TKB;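 note: growth inhibition of TGBC1TKB cells, read out by a cell viability assay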
# Description: SANGER: Inhibition of human TGBC1TKB cell growth in a cell viability assay.
# D-263MG = assay type: functional, cell-based, Homo sapiens; details: Homo sapiens, D-263MG
# Description: SANGER: Inhibition of human D-263MG cell growth in a cell viability assay.
# U-266 = assay type: functional, cell-based, Homo sapiens; details: Homo sapiens, U-266
# Description: SANGER: Inhibition of human U-266 cell growth in a cell viability assay.
# KALS-1 = assay type: functional, cell-based, Homo sapiens; details: Homo sapiens, KALS-1; read-out: IC50;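 note: growth inhibition of KALS-1 cells, determined with a cell viability assay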
# Description: SANGER: Inhibition of human KALS-1 cell growth in a cell viability assay.
# NCI-H1648 = assay type: functional, cell-based, Homo sapiens; details: Homo sapiens, NCI-H1648;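 note: cell viability assay measuring inhibition of NCI-H1648 cell growth, from the Sanger screening data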
# Description: SANGER: Inhibition of human NCI-H1648 cell growth in a cell viability assay.
smiles,measurement,setting,value
NC1(c2ccc(-c3nc4ccn5c(=O)[nH]nc5c4cc3-c3ccccc3)cc2)CCC1 [MK-2206],IC50,PSN1,> 4 µM
same,IC50,SK-MEL-2,> 4 µM
same,IC50,KP-N-YS,> 4 µM
same,IC50,OMC-1,1.75 µM
same,IC50,SW 962,> 4 µM
same,IC50,COLO-824,> 4 µM
same,IC50,ES1,1.24 µM
same,IC50,KNS-81-FD,> 4 µM
same,IC50,TE-5,> 4 µM
same,IC50,KM12,> 4 µM
same,IC50,KY821,> 4 µM
same,IC50,JVM-3,> 4 µM
same,IC50,MN-60,2.3 µM
same,IC50,HCE-4,> 4 µM
same,IC50,KG-1,> 4 µM
same,IC50,A253 cell line,> 4 µM
same,IC50,EW-3,3.2 µM
same,IC50,KU812 cell line,> 4 µM
same,IC50,NOS-1,0.637 µM
same,IC50,NCI-H526,> 4 µM
same,IC50,MZ1-PC,> 4 µM
same,IC50,KARPAS-299,> 4 µM
same,IC50,NCI-H1770,> 4 µM
same,IC50,NCI-H446,> 4 µM
same,IC50,HT,0.632 µM
same,IC50,BB65-RCC,> 4 µM
same,IC50,LU-134-A,3.88 µM
same,IC50,TE-11,> 4 µM
same,IC50,NCI-H1581,> 4 µM
same,IC50,BT-474,> 4 µM
same,IC50,UACC-257,> 4 µM
same,IC50,LS-411N,> 4 µM
same,IC50,CGTH-W-1,> 4 µM
same,IC50,D-247MG,> 4 µM
same,IC50,MLMA,> 4 µM
same,IC50,EW-1,> 4 µM
same,IC50,RS4-11,0.346 µM
same,IC50,LC-2-ad,> 4 µM
same,IC50,ES3,2.5 µM
same,IC50,J-RT3-T3-5,0.744 µM
same,IC50,DSH1,> 4 µM
same,IC50,NCI-H1092,> 4 µM
same,IC50,SNU1,> 4 µM
same,IC50,OCI-AML2,> 4 µM
same,IC50,RKO,1.87 µM
same,IC50,TGBC1TKB,> 4 µM
same,IC50,D-263MG,> 4 µM
same,IC50,U-266,> 4 µM
COc1ccc(N(C(=O)Oc2c(C)cccc2C)c2ccnc(Nc3ccc(N4CCN(C)CC4)cc3)n2)c(OC)c1,IC50,PSN1,> 5.12 µM
same,IC50,SK-MEL-2,> 5.12 µM
same,IC50,KP-N-YS,4.92 µM
same,IC50,OMC-1,> 5.12 µM
same,IC50,SW 962,1.34 µM
same,IC50,COLO-824,> 5.12 µM
same,IC50,ES1,> 5.12 µM
same,IC50,KNS-81-FD,> 5.12 µM
same,IC50,TE-5,> 5.12 µM
same,IC50,KM12,> 5.12 µM
same,IC50,KY821,> 5.12 µM
same,IC50,JVM-3,> 5.12 µM
same,IC50,KALS-1,> 5.12 µM
same,IC50,MN-60,> 5.12 µM
same,IC50,HCE-4,> 5.12 µM
same,IC50,A253 cell line,> 5.12 µM
same,IC50,EW-3,> 5.12 µM
same,IC50,KU812 cell line,> 5.12 µM
same,IC50,NOS-1,0.95 µM
same,IC50,NCI-H526,> 5.12 µM
same,IC50,NCI-H1648,0.516 µM
same,IC50,MZ1-PC,0.227 µM
same,IC50,KARPAS-299,> 5.12 µM
same,IC50,NCI-H1770,> 5.12 µM
same,IC50,NCI-H446,> 5.12 µM
same,IC50,HT,> 5.12 µM
same,IC50,BB65-RCC,4.7 µM
same,IC50,LU-134-A,> 5.12 µM
same,IC50,TE-11,> 5.12 µM
same,IC50,NCI-H1581,> 5.12 µM
same,IC50,BT-474,> 5.12 µM
same,IC50,UACC-257,> 5.12 µM
same,IC50,LS-411N,> 5.12 µM
same,IC50,CGTH-W-1,> 5.12 µM
same,IC50,D-247MG,> 5.12 µM
same,IC50,MLMA,1.92 µM
same,IC50,EW-1,> 5.12 µM
same,IC50,RS4-11,> 5.12 µM
same,IC50,LC-2-ad,0.0203 µM
same,IC50,ES3,> 5.12 µM
same,IC50,J-RT3-T3-5,> 5.12 µM
same,IC50,DSH1,> 5.12 µM
same,IC50,NCI-H1092,> 5.12 µM
same,IC50,SNU1,> 5.12 µM
same,IC50,OCI-AML2,> 5.12 µM
same,IC50,RKO,> 5.12 µM
same,IC50,TGBC1TKB,> 5.12 µM
same,IC50,D-263MG,2.29 µM
same,IC50,U-266,> 5.12 µM
CN(C)CCOc1ccc(-c2nc(-c3ccncc3)c(-c3ccc4c(c3)CC/C4=N\O)[nH]2)cc1 [SB590885],IC50,PSN1,1.87 µM
same,IC50,SK-MEL-2,0.738 µM
same,IC50,KP-N-YS,> 5 µM
same,IC50,OMC-1,> 5 µM
same,IC50,SW 962,> 5 µM
same,IC50,COLO-824,> 5 µM
same,IC50,ES1,> 5 µM
same,IC50,KNS-81-FD,> 5 µM
same,IC50,TE-5,> 5 µM
same,IC50,KM12,> 5 µM
same,IC50,KY821,> 5 µM
same,IC50,JVM-3,> 5 µM
same,IC50,MN-60,> 5 µM
same,IC50,HCE-4,> 5 µM
same,IC50,KG-1,> 5 µM
same,IC50,A253 cell line,> 5 µM
same,IC50,EW-3,3.56 µM
same,IC50,KU812 cell line,> 5 µM
same,IC50,NOS-1,> 5 µM
same,IC50,NCI-H526,> 5 µM
same,IC50,MZ1-PC,> 5 µM
same,IC50,KARPAS-299,> 5 µM
same,IC50,NCI-H1770,> 5 µM
same,IC50,NCI-H446,> 5 µM
same,IC50,HT,> 5 µM
same,IC50,BB65-RCC,> 5 µM
same,IC50,LU-134-A,> 5 µM
same,IC50,TE-11,> 5 µM
same,IC50,NCI-H1581,> 5 µM
same,IC50,BT-474,> 5 µM
same,IC50,UACC-257,1.13 µM
same,IC50,LS-411N,> 5 µM
same,IC50,CGTH-W-1,> 5 µM
same,IC50,D-247MG,> 5 µM
same,IC50,MLMA,> 5 µM
same,IC50,EW-1,> 5 µM
same,IC50,RS4-11,> 5 µM
same,IC50,LC-2-ad,> 5 µM
same,IC50,ES3,> 5 µM
same,IC50,J-RT3-T3-5,> 5 µM
same,IC50,DSH1,> 5 µM
same,IC50,NCI-H1092,> 5 µM
same,IC50,SNU1,2.9 µM
same,IC50,OCI-AML2,> 5 µM
same,IC50,RKO,> 5 µM
same,IC50,TGBC1TKB,> 5 µM
same,IC50,D-263MG,> 5 µM
same,IC50,U-266,> 5 µM
